Key:
[1] = test system: THP-1 cells polarized to M2-like macrophages; assay: Reprogramming of M2-like THP-1 macrophages, marker gene analysis by qPCR; format: cell-based, human
Protocol: THP-1 cells were seeded into 96-well plates at a density of 60,000 cells/well. Cells were differentiated into unpolarized macrophages by 48 hours incubation with 200 nM PMA followed by 24 hours incubation in fresh RPMI medium. […] Cultures were maintained at 37° C. in a humidified 5% CO2 incubator.
Total RNA was isolated from 1×10^5 —2×10^5 macrophages using a Quick-RNA™ MicroPrep kit (Zymo Research, Irvine, CA) according to the manufacturer-recommended protocol. […] IL-6, CXCL10, IFNα, IFN-γ and CD86 were used as markers for an M1 phenotype, while CCL18, CD206, CD163 and Arg1 were employed as markers for the M2 phenotype. IL-1β, PDGFβ, MMP9 and TIMP 3 were measured as indicators of a profibrotic phenotype. IRAK-4 was used as an indicator of TLR7 stimulation. To control for specificity of the amplification products, a melting curve analysis was performed. […] Each sample was analyzed independently in triplicate for each marker.
Primarily, human monocytic (THP-1) cells were induced to the M2-like phenotype using the methods and materials previously described. In particular, THP-1 cells were seeded into 96-well plates at a density of 60,000 cells/well. Cells were differentiated into unpolarized macrophages by 48 h incubation with 200 nM PMA followed by 24 hours incubation in fresh RPMI medium. The resulting macrophages were polarized to an M2-like phenotype by incubation with 20 ng/ml IL-4, 20 ng/ml IL-13, and 5 ng/mL IL-6 for 48 h. Cultures were maintained at 37° C. in a humidified 5% CO2 incubator.
In addition to the nonconjugated TLR7 agonist, conjugated compounds of the present disclosure were likewise evaluated. […] The cells were subsequently harvested for gene analysis by qPCR and the relative expression of CCL18 (FIG. 14A), CD206 (FIG. 14B), and IL-1β (FIG. 14C) analyzed.

[2] = test system: M2-induced THP-1 macrophages; assay: Secreted CCL18 and IL-1β in THP-1 supernatants by ELISA; format: cell-based, human
Protocol: FIGS. 6A-6D show graphical data representative of various marker levels measured from M2-induced THP-1 macrophages treated with different concentrations of drugs for 48 hours (FIGS. 6A and 6B) or for 2 hours, then displaced with fresh medium and cultured for the remaining 46 hours (FIGS. 6C and 6D). In both cases, cell supernatants were collected and secreted CCL18 protein and IL-1β was detected by ELISA.
Further, to ensure that the above mRNA analyses accurately reflected the levels of profibrotic cytokines produced by IL-4, IL-6 plus IL-13 stimulated THP-1 cells, the concentrations of CCL18 and IL-1β polypeptides in the THP-1 supernatants were quantitated by ELISA assay.
CCL18 and IL-1β were quantified in induced THP-1 cell supernatants using a human DuoSet ELISA Development System (R&D Systems Europe, Abingdon, UK; #DY394-05) and an IL-1 beta Human ELISA Kit (Thermo Fisher Scientific, Waltham, MA; #BMS224-2) as described by manufactures.

[3] = 2 hours with drug, then drug-free medium
[4] = incubated 2 hours, harvested at once or after a further 46 hours
[5] = incubated continuously for 48 hours, ELISA

In the case of CCCCc1nc2c(N)nc3ccccc3c2n1CC(C)(C)OC(=O)OCCSSCC(NC(=O)CCC(NC(=O)c1ccc(NCc2cnc3nc(N)[nH]c(=O)c3n2)cc1)C(=O)O)C(=O)O (stereo not drawn) [Compound 1B], the TNFα induction [1, 3] is reported as “dramatically improved”, the “potency relative to Compound 1A” value [1, 3] is reported as “superior potency relative to Compound 1A” and the “marker changes (FIGS. 3A-3F) compared with nontargeted TLR7 agonist” value ([1]; M2-induced THP-1, 48 hours incubation) is reported as “same qualitative changes were observed, only the magnitude of the impact of Compound 1B was somewhat reduced”. The PDGFα ([1]; data not shown) was “no significant difference”, the “M1-like phenotype (CD86 mRNA, TNFα levels)” value [1, 4] was “upregulated” and the “profibrotic/M2-type markers (CCL18, CD206, IL-1β, PDGFβ mRNA)” value [1, 4] was “downregulated profibrotic/M2-type markers of macrophages more than Compound 1A”. The “reduction of secreted CCL18 and IL-1β, comparison of the two agonists” value ([2]; drug exposure limited to 2 hours, then 46 hours fresh medium) was “superior”, the “secreted CCL18 protein” value [2, 5] was “reductions” and the “secreted IL-1β” value [2, 5] was “reductions”.

— US12397059B2, “Compounds and methods for the treatment and prevention of fibrotic disease states and cancer” (Purdue Research Foundation, priority 2019, dated 2025)
